Test results as given in patent US5360796A, “Imidazo[1,2-a]pyridinylalkyl phosphonic acid compounds for treatment of neurotoxic injury” (G. D. Searle & Co., priority 1991, dated 1994).

Columns and labels:
[1] = test system: CA1 region of the hippocampus; test: Forebrain Ischemia Assay; assay type: in vivo, Mongolian gerbil; settings: for # of Neurons/Field: 7 days after 4-5 min carotid occlusion
Procedure: This assay was used to determine the extent of protection afforded by compound of the invention to neural brain cells subjected to ischemic conditions. Male Mongolian gerbils, 50-70 gm, were used as subjects. Compound No. 7 (30 mg/kg) was injected j.p. 30 minutes prior to carotid occlusion into 6 gerbils […]. In preparation for surgical procedures, the animals were lightly anesthetized with methoxyflurane and placed upside down on a heated pad with their snout within a nosecone. A 70:30 mixture of nitrous oxide and oxygen containing 0.5% halothane was circulated through the nosecone to provide continuous anesthesia throughout the surgical procedure. A midline incision was made in the neck and the carotid arteries were exposed. A length of suture thread was placed under each carotid. The thread was then tightened around each carotid and pressure applied to the thread to insure flow was occluded. Flow was occluded for 4-5 minutes and then the thread was removed. The carotids were visually inspected to confirm that reflow had occurred. The wound was then closed with autoclips and the gerbils allowed to recover. Following surgery, the gerbils were kept alive for 7 days. They were anesthetized with 100 mg/kg sodium pentobarbital and perfused transcardially with saline (with heparin) followed by buffered formalin. The brain was removed, trimmed and prepared for histological processing. Sections (10 microns) were stained with thionin. […] Quantification of the resulting lesion is made by counting the pyramidal cell somata in a 0.5 mm length of CAl of the hippocampus on the section corresponding to P 1.7 mm in the gerbil brain atlas.
Normal cell count in this region of the hippocampus in unoperated gerbils is 146±2. The effects of compound of Ex. #7 were assessed by comparing the number of neural cells found in the hippocampus of subjects treated with Ex. #7 compound with the cell number found in the appropriate control groups. […]

AMPA = test: [3H]AMPA (QUIS) binding assay; parameters: species or system rat; settings: 10 nM [3H]AMPA, 100 mM KSCN, synaptic plasma membranes, pH 7.4, 0-4° C., 10 min; read-out: NMDA Receptor Binding Data, Ki IC50 Binding AMPA
Procedure: Synaptic plasma membranes (SPM) were prepared as previously described [Monahah, J. B. and Michel, J., "Identification and Characterization of an N-methyl-D-aspartate-specific L[^3 H]glutamate Recognition Site in Synaptic Plasma Membranes, J. Neurochem., 48, 1699-1708 (1987)]. The SPM were stored at a concentration of 10-15 mg/ml in 0.32M sucrose, 0.5 mM EDTA, 1 mM MgSO4, 5 mM Tris/SO4, pH 7.4, under liquid nitrogen. The identity and purity of the subcellular fractions were confirmed by both electron microscopy and marker enzymes. Protein concentrations were determined by using a modification of the method of Lowry [Ohnishi, S. T. and Barr, J. K., "A Simplified Method of Quantitating Proteins using the Biuret and Phenol Reagents", Anal. Biochem., 86, 193-197 (1978)]. The SPM were treated identically for the [^3 H]AMPA (QUIS), [^3 H]kainate and sodium-dependent L-[^3 H]-glumatate binding assays. The SPM were thawed at room temperature, diluted twenty-fold with 50mM Tris/acetate, pH 7.4, incubated at 37° C. for 30 minutes, and centrifuged at 100,000 g for 15 minutes. The dilution, incubation, and centrifugation was repeated a total of three times. Prior to use in the NMDA-specific L-[^3 H]-glutamate binding assay the SPM were thawed, diluted twenty fold with 50 mM Tris/acetate, pH 7.4 containing 0.04% (v/v) Triton X-100, incubated for 30 minutes at 37° C. and centrifuged as described above. The Triton X-100 treated membranes were washed with 50 mM Tris/acetate, pH 7.4 and centrifuged at 100,000 g for 15 minutes a total of four times. […] The basic procedure for the receptor subclass binding assays was similar. This general method involved adding the radioligand (12.5 nM L-[^3 H] glutamate; 0.5 nM [^3 H]kainate or 10 nM [^3 H]AMPA) to the appropriate concentration of the test compound and initiating the assay by the addition of ice cold synaptic plasma membranes (0.2-0.45 mg). The binding assays were performed in 1.5 mL centrifuge tubes with the total volume adjusted to 1.0 mL. Additions of test compounds were made in 50 mM Tris/acetate, pH 7.4 and incubations were carried out at 0°-4° C. The incubation time for the NMDA and the AMPA binding assays was 10 minutes, for the kainate binding assay 60 minutes and for the sodium-dependent glutamate binding assay 15 minutes. The AMPA binding assay contained 100 mM KSCN and the sodium-dependent glutamate binding assay contained 150 mM sodium acetate in addition to the previously described reagents. To terminate the incubation, the samples were centrifuged for 15 minutes at 12,000 g and 4° C. in a Beckman Microfuge 12. The supernatant was aspirated and the pelleted membranes dissolved in Beckman BTS-450 tissue solubilizer for a minimum of 6 hours at room temperature. Beckman MP scintillation cocktail containing 7 mL/1 acetic acid was then added and the samples counted on a Beckman LS 5800 or 3801 liquid scintillation counter with automatic corrections for quenching and counting efficiency. Nonspecific binding was defined as the residual binding in the presence of either excess L-glutamate (0.1-0.4 mM), kainate (0.01 mM), or NMDA (0.5 mM), and was 15-25% of the total binding in the NMDA binding assay, 19-27% in the AMPA binding assay, 20-30% in the kainate binding assay and 10-15% in the sodium-dependent binding assay. Radioligand binding to the synaptic plasma membranes was analyzed using Scatchard and Hill transformations and the Ki values of the compounds determined using logit-log transformations. Calculations and regression analysis were performed using templates developed for Lotus 1, 2, 3 as previously described [Pullan, L. M. "Automated Radioligand Receptor Binding Analysis with Templates for Lotus", Computer Appln. Biosci., 3, 131 (1987)]. Binding results are reported in Table I for example compounds of the invention.

[2] = test system: tonic hindlimb extensor seizures; test: Anticonvulsant Assay (electroconvulsive shock); assay type: in vivo, mouse (CD-1); settings: for Protected from ECS (% of Mice): 30 min prior to ECS
Source text: The screens were then slowly inverted. […] The current was held constant at 15 mA. […] There were 10 mice in each treatment group.

O=C(O)c1cn2c(CP(=O)(O)O)cccc2n1 [Example 7, 5-(phosphonomethyl)imidazo[1,2-a]pyridine-2-carboxylic acid]
# of Neurons/Field ([1]; 300 mg/kg, control 32.8, P < 0.05): 53.0 | # of Neurons/Field ([1]; 500 mg/kg, control 17.0, p < 0.0001): 112.6 | cell loss ([1]; vs control, Mann-Whitney U test): significantly reduced | Ki (AMPA): > 300 µM | Protected from ECS (% of Mice) ([2]; 10 mg/kg s.c.): 20% | Protected from ECS (% of Mice) ([2]; 32 mg/kg s.c.): 60% | Protected from ECS (% of Mice) ([2]; 56 mg/kg s.c.): 90% | Protected from ECS (% of Mice) ([2]; 100 mg/kg s.c.): 100% | ED50 ([2]; Mus musculus, sc, 0.5 h, s.c., doses in mg/kg, 95% CI 12.3-32.9, read-out: Protected from ECS ED50): 21.8 mg/kg | protection against tonic hindlimb extensor seizures (in words) ([2]; s.c.): protected against tonic hindlimb extensor seizures in a dose-dependent fashion
